Experimental data published in ChEMBL document CHEMBL5647694, “Novel orally bioavailable EZH1/2 dual inhibitors with greater antitumor efficacy than an EZH2 selective inhibitor” (Cancer Sci, 2017).

Key:
[1] = molecular target: Epidermal growth factor receptor (Homo sapiens) (UniProt P00533); experiment: Inhibition of N-terminal GST-fused human EGFR cytoplasmic domain (669 to 1210 residues) expressed in baculovirus-infected Sf21 cells using Srctide as substrate at 1 uM in presence of ATP by Mobility shift assay
[2] = molecular target: Vascular endothelial growth factor receptor 3 (Homo sapiens) (UniProt P35916); experiment: Inhibition of N-terminal GST-fused human FLT4 cytoplasmic domain (798 to 1298 residues) expressed in baculovirus-infected Sf21 cells using CSKtide as substrate at 1 uM in presence of ATP by Mobility shift assay
[3] = molecular target: Tyrosine-protein kinase Fyn (Homo sapiens) (UniProt P06241); experiment: Inhibition of human FYN at 1 uM by mobility shift assay relative to control
[4] = molecular target: Receptor tyrosine-protein kinase erbB-4 (Homo sapiens) (UniProt Q15303); experiment: Inhibition of N-terminal GST-fused human HER4 cytoplasmic domain (676 to 1308 residues) expressed in baculovirus infected Sf21 cells using Srctide as substrate at 1 uM in presence of ATP by Mobility shift assay
[5] = molecular target: Tyrosine-protein kinase JAK1 (Homo sapiens) (UniProt P23458); experiment: Inhibition of N-terminal GST-fused human JAK1 catalytic domain (850 to 1154 residues) expressed in baculovirus-infected Sf21 cells using JAK1 substrate peptide at 1 uM in presence of ATP by Mobility shift assay
[6] = molecular target: Tyrosine-protein kinase JAK2 (Homo sapiens) (UniProt O60674); experiment: Inhibition of N-terminal His-tagged human JAK2 catalytic domain (826 to 1132 residues) expressed in baculovirus-infected Sf21 cells using Srctide as substrate at 1 uM in presence of ATP by Mobility shift assay
[7] = molecular target: Tyrosine-protein kinase Srms (Homo sapiens) (UniProt Q9H3Y6); experiment: Inhibition of N-terminal GST-tagged human SRM catalytic domain (215 to 488 residues) expressed in baculovirus-infected Sf21 cells using Blk/Lyntide as substrate at 1 uM in presence of ATP by Mobility shift assay
[8] = Inhibition of N-terminal GST-tagged human TRKB cytoplasmic domain (456 to 825 residues) expressed in baculovirus-infected Sf21 cells using Srctide as substrate at 1 uM in presence of ATP by Mobility shift assay; settings: condition cancer
[9] = molecular target: RAC-gamma serine/threonine-protein kinase (Homo sapiens) (UniProt Q9Y243); experiment: Inhibition of N-terminal GST-tagged human AKT3 catalytic domain (108 to 479 residues) co-expressed with His-tagged PDK1 (1 to 556 residues) in baculovirus-infected Sf21 cells using Crosstide as substrate at 1 uM in presence of ATP by Mobility shift assay
[10] = molecular target: Aurora kinase B (Homo sapiens) (UniProt Q96GD4); experiment: Inhibition of human AurB at 1 uM by Mobility shift assay
[11] = molecular target: Serine/threonine-protein kinase BRSK2 (Homo sapiens) (UniProt Q8IWQ3); experiment: Inhibition of N-terminal GST-tagged full length human BRSK2 (1 to 674 residues) expressed in baculovirus-infected Sf21 cells using CHKtide as substrate at 1 uM in presence of ATP by Mobility shift assay
[12] = molecular target: Citron Rho-interacting kinase (Homo sapiens) (UniProt O14578); experiment: Inhibition of N-terminal GST-fused human CRIK catalytic domain (1 to 449 residues) expressed in baculovirus expression system using Histone H3 peptide as substrate at 1 uM in presence of ATP by Mobility shift assay
[13] = molecular target: Serine/threonine-protein kinase MARK1 (Homo sapiens) (UniProt Q9P0L2); experiment: Inhibition of N-terminal GST-fused full length human MARK1 (1 to 795 residues) expressed in baculovirus expression system using CHKtide as substrate at 1 uM in presence of ATP by Mobility shift assay
[14] = molecular target: Serine/threonine-protein kinase 3 (Homo sapiens) (UniProt Q13188); experiment: Inhibition of N-terminal GST-fused full length human MST2 (1 to 491 residues) expressed in baculovirus expression system using IRS1 as substrate at 1 uM in presence of ATP by Mobility shift assay
[15] = molecular target: Serine/threonine-protein kinase 38 (Homo sapiens) (UniProt Q15208); experiment: Inhibition of N-terminal GST-fused full length human NDR1 (1 to 465 residues) expressed in baculovirus expression system using SGKtide as substrate at 1 uM in presence of ATP by Mobility shift assay
[16] = molecular target: Mitogen-activated protein kinase 12 (Homo sapiens) (UniProt P53778); experiment: Inhibition of N-terminal GST-fused full length human p38gamma (1 to 367 residues) expressed in Escherichia coli expression system using Modified Erktide as substrate at 1 uM in presence of ATP by Mobility shift assay
[17] = molecular target: Mitogen-activated protein kinase 13 (Homo sapiens) (UniProt O15264); experiment: Inhibition of N-terminal GST-fused full length human p38delta (1 to 365 residues) expressed in Escherichia coli expression system using Modified Erktide as substrate at 1 uM in presence of ATP by Mobility shift assay
[18] = molecular target: [Pyruvate dehydrogenase (acetyl-transferring)] kinase isozyme 4, mitochondrial (Homo sapiens) (UniProt Q16654); experiment: Inhibition of N-terminal GST-fused full length human PDHK4 (1 to 411 residues) expressed in Escherichia coli expression system using PDHKtide as substrate at 1 uM in presence of ATP by Mobility shift assay
[19] = molecular target: cAMP-dependent protein kinase catalytic subunit gamma (Homo sapiens) (UniProt P22612); experiment: Inhibition of N-terminal GST-tagged full length human PKACgamma (1 to 351 residues) expressed in baculovirus expression system using Kemptide as substrate at 1 uM in presence of ATP by Mobility shift assay
[20] = molecular target: Protein kinase C delta type (Homo sapiens) (UniProt Q05655); experiment: Inhibition of N-terminal GST-fused human full length PKC-delta (1 to 676 residues ) expressed in baculovirus expression system using PKC peptide as substrate at 1 uM in presence of ATP by Mobility shift assay
[21] = molecular target: Serine/threonine-protein kinase Sgk1 (Homo sapiens) (UniProt O00141); experiment: Inhibition of N-terminal GST-tagged truncated human SGK (61 to 431 residues) expressed in baculovirus expression system using SGKtide as substrate at 1 uM in presence of ATP by Mobility shift assay
[22] = molecular target: Serine/threonine-protein kinase Sgk3 (Homo sapiens) (UniProt Q96BR1); experiment: Inhibition of N-terminal GST-fused truncated human SGK3 (119 to 496 residues) expressed in baculovirus expression system using SGKtide as substrate at 1 uM in presence of ATP by Mobility shift assay
[23] = molecular target: SRSF protein kinase 2 (Homo sapiens) (UniProt P78362); experiment: Inhibition of N-terminal GST-fused full length human SRPK2 (1 to 688 residues) expressed in baculovirus expression system using DYRKtide-F as substrate at 1 uM in presence of ATP by Mobility shift assay
[24] = molecular target: Testis-specific serine/threonine-protein kinase 3 (Homo sapiens) (UniProt Q96PN8); experiment: Inhibition of N-terminal GST-fused full length human TSSK3 (2 to 268 residues) expressed in baculovirus expression system using GS peptide as substrate at 1 uM in presence of ATP by Mobility shift assay

RAC-gamma serine/threonine-protein kinase (Homo sapiens), sequence (Q9Y243 whole entry, the tested form may be a part): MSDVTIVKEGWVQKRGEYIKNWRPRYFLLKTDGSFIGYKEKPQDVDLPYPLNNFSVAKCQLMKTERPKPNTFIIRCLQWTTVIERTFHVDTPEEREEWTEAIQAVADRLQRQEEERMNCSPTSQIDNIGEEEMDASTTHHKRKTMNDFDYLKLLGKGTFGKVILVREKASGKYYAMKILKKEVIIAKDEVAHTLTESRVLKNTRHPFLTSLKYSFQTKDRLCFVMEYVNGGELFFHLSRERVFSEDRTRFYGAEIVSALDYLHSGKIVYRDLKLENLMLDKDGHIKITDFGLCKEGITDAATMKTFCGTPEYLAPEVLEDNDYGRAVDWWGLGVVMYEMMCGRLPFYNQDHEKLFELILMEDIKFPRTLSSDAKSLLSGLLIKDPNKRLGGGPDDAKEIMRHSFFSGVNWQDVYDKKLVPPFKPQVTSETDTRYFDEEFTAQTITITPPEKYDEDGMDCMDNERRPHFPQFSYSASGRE
Protein kinase C delta type (Homo sapiens), sequence (Q05655 whole entry, looked up, the tested form may be a part): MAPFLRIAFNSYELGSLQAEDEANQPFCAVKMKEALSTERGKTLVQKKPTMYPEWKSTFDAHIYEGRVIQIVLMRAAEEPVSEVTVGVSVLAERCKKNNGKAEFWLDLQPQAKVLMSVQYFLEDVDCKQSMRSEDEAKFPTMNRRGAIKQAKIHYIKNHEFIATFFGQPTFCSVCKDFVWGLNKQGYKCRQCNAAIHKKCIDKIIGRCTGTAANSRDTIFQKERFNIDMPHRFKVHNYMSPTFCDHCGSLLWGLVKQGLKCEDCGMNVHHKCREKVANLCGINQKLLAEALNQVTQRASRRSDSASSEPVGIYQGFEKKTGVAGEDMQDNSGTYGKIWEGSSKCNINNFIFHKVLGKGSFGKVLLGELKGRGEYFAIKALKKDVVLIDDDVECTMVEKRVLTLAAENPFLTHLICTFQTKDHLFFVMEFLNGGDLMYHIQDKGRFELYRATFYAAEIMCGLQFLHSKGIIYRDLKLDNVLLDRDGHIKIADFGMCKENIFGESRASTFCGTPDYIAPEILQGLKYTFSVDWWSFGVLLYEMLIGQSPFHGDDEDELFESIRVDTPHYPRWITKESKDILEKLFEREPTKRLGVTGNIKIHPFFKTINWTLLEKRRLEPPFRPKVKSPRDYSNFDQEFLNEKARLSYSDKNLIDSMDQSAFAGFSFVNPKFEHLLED
Tyrosine-protein kinase Fyn (Homo sapiens), sequence (P06241 2-537 limits assumed): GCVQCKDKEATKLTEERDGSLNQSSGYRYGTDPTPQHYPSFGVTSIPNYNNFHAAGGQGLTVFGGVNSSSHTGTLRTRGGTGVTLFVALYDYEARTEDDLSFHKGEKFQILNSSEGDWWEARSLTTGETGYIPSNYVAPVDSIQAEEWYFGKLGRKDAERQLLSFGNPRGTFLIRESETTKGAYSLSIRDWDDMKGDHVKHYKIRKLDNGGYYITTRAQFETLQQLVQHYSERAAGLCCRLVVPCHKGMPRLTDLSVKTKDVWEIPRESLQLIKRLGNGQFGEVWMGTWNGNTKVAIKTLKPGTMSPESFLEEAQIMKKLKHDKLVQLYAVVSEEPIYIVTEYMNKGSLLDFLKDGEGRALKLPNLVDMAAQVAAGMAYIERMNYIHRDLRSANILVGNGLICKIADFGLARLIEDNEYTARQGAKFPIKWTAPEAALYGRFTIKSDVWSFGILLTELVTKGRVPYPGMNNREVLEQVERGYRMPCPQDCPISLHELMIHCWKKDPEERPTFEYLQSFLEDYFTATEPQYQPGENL
Serine/threonine-protein kinase 3 (Homo sapiens), sequence (Q13188 whole entry, the tested form may be a part): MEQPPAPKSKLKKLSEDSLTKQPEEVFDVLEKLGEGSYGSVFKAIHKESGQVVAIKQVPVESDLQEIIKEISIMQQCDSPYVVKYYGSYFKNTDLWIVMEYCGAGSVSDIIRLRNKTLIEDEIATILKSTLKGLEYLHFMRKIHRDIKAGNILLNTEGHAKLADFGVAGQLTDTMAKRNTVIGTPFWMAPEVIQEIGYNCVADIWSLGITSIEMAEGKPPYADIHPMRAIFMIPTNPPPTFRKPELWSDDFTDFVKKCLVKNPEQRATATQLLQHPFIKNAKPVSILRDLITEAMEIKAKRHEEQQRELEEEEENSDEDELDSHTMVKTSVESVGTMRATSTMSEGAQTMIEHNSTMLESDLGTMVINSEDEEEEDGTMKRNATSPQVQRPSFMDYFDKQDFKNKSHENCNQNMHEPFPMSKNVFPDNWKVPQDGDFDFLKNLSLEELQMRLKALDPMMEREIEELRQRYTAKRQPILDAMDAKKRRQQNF
Mitogen-activated protein kinase 13 (Homo sapiens), sequence (O15264 whole entry, the tested form may be a part): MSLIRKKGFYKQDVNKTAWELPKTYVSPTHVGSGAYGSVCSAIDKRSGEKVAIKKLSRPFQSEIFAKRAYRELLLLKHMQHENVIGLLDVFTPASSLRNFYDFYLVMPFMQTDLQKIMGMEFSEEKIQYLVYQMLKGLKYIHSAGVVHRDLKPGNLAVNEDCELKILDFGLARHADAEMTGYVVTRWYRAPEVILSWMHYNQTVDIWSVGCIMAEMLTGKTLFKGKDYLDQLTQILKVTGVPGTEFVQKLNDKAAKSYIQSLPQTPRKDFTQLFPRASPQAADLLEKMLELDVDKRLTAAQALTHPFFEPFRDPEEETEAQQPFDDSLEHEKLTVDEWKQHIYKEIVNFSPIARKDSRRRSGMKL
cAMP-dependent protein kinase catalytic subunit gamma (Homo sapiens), sequence (P22612 2-351 limits assumed): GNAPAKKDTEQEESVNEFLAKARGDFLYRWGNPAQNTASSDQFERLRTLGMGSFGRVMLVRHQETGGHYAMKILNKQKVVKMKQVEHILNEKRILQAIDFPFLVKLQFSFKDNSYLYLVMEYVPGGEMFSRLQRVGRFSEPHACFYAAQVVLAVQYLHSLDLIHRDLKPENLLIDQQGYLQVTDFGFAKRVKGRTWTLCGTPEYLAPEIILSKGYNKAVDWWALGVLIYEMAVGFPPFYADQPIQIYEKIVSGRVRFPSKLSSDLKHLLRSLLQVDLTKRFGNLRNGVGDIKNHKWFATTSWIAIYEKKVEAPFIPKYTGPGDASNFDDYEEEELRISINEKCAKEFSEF
Citron Rho-interacting kinase (Homo sapiens), sequence (O14578 whole entry, the tested form may be a part): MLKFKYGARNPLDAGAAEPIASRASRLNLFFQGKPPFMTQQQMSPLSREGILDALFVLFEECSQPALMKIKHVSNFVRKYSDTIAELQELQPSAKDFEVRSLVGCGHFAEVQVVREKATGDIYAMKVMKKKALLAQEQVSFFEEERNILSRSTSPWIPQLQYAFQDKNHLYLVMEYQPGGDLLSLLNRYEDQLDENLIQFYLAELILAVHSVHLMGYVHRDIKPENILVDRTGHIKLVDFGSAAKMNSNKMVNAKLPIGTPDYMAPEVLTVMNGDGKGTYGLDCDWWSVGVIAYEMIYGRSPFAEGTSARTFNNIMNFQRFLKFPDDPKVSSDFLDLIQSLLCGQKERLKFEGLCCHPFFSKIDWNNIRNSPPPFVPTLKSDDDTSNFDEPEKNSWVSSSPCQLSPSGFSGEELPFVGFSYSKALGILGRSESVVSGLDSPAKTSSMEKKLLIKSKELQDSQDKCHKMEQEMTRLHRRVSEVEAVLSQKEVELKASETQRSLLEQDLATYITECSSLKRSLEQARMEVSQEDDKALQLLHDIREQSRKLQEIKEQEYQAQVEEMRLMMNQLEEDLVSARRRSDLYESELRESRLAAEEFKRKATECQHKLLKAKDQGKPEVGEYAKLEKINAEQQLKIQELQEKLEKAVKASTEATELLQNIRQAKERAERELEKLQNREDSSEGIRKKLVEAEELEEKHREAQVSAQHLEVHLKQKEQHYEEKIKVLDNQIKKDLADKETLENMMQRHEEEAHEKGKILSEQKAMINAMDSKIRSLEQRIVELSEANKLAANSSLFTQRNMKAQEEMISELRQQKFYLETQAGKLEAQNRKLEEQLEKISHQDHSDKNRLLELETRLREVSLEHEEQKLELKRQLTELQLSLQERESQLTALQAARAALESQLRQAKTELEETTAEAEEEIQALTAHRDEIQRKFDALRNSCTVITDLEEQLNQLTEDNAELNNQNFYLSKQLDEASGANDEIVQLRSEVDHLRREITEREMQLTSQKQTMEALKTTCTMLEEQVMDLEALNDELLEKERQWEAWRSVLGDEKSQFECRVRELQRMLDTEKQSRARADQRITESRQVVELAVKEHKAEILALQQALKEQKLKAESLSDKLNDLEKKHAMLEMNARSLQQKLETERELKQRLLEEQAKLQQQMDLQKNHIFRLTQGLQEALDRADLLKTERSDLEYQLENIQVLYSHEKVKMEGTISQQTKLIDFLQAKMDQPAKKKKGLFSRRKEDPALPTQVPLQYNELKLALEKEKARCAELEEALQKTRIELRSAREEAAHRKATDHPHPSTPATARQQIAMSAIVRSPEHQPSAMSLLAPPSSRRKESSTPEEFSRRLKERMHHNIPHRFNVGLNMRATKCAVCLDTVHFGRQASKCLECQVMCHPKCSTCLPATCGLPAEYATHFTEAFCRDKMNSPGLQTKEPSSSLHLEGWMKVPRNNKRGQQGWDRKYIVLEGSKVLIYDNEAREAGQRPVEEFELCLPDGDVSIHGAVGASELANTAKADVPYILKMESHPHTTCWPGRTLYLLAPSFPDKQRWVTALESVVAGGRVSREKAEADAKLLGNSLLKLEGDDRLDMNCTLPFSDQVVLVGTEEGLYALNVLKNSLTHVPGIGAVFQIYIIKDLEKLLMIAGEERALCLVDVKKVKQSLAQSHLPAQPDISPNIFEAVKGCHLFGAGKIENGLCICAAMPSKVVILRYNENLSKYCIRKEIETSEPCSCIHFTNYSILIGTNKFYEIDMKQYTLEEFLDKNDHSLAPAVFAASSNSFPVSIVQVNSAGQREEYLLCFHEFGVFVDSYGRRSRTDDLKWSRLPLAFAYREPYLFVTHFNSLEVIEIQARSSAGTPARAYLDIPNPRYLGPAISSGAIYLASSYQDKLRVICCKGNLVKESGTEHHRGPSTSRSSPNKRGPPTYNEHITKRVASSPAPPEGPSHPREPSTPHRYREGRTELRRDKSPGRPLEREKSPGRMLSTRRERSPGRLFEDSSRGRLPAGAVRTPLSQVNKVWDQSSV

| Compound | inhibition [1] [%] | inhibition [2] [%] | inhibition [3] [%] | inhibition [4] [%] | inhibition [5] [%] | inhibition [6] [%] | inhibition [7] [%] | inhibition at 1 µM [8] [%] | inhibition [9] [%] | inhibition [10] [%] | inhibition [11] [%] | inhibition [12] [%] | inhibition [13] [%] | inhibition [14] [%] | inhibition [15] [%] | inhibition [16] [%] | inhibition [17] [%] | inhibition [18] [%] | inhibition [19] [%] | inhibition [20] [%] | also measured |
| --- | --- | --- | --- | --- | --- | --- | --- | --- | --- | --- | --- | --- | --- | --- | --- | --- | --- | --- | --- | --- | --- |
| Cc1cc(C)c(CNC(=O)c2cc(Cl)c3c(c2C)O[C@@](C)([C@H]2CC[C@H](N(C)C)CC2)O3)c(=O)[nH]1 [VALEMETOSTAT] | -1.8 | -1.9 | 5.1 | -0.2 | -3.3 | -4.5 | 0.6 | -8.7 | -5.3 | -1 | 11.2 | -5 | -7.1 | -1.4 | -0.5 | -3 | -6.9 | -4.3 | -2.4 | 2.7 | inhibition [21]: -4.2%; inhibition [22]: 0.3%; inhibition [23]: 0%; inhibition [24]: 7.3% |
| Cc1cc(C)c(CNC(=O)c2cc(Br)c3c(c2C)O[C@@](C)([C@H]2CC[C@H](N(C)C)CC2)O3)c(=O)[nH]1 | -2 | -1.5 | 2.6 | 2.6 | -3.3 | -4.4 | -0.1 | -7.7 | -6.2 | -3.7 | 6.6 | -7.4 | -4.5 | -2.1 | -2.6 | -1.6 | -4.7 | -4.1 | -1.4 | 1.5 | inhibition [21]: -3%; inhibition [22]: -4.5%; inhibition [23]: -1.6%; inhibition [24]: 12.1% |
